row,SMILES,melting point
1,CONC(=NS(=O)(=O)c1ccc(C(F)(F)F)cc1)N1CC(c2cccc(F)c2)C(c2ccc(Cl)cc2)=N1 (stereo not drawn),> 260 °C
2,"CONC(=NS(=O)(=O)c1ccc(Cl)cc1)N1CC(c2cccc(C(F)(F)F)c2)C(c2ccc(Cl)cc2)=N1 (stereo not drawn) [Example 49, 3-(4-Chlorophenyl)-N′-((4-chlorophenyl)sulfonyl)-N-methoxy-4-(3-(trifluoromethyl)phenyl)-4,5-dihydro-1H-pyrazole-1-carboxamidine]",80 to 83 °C
3,CONC(=NS(=O)(=O)c1cc(F)c(F)cc1F)N1CC(c2ccccc2)C(c2ccc(Cl)cc2)=N1 (stereo not drawn),160 to 162 °C
4,"CONC(=NS(=O)(=O)c1ccc(Cl)cc1)N1CC(c2ccccc2F)C(c2ccc(Cl)cc2)=N1 (stereo not drawn) [Example 56, 3-(4-Chlorophenyl)-N′-((4-chlorophenyl)sulfonyl)-4-(2-fluorophenyl)-N-(methoxy)-4,5-dihydro-1H-pyrazole-1-carboxamidine]",162 to 164 °C
5,"O=S(=O)(N=C(NCCF)N1CC(c2c(F)cccc2F)C(c2ccc(Cl)cc2)=N1)c1ccc(Cl)cc1 (stereo not drawn) [Example 51, 3-(4-Chlorophenyl)-N′-((4-chlorophenyl)sulfonyl)-N-(2-fluoroethyl)-4-(2,6-difluorophenyl)-4,5-dihydro-1H-pyrazole-1-carboxamidine]",153 to 155 °C
6,"O=S(=O)(N=C(NN1CCCCC1)N1CC(c2ccccc2)C(c2ccc(Cl)cc2)=N1)c1ccc(Cl)cc1 (stereo not drawn) [Example 1, 3-(4-Chlorophenyl)-N′-((4-chlorophenyl)sulfonyl)-N-(piperidin-1-yl)-4-phenyl-4,5-dihydro-1H-pyrazole-1-carboxamidine]",213 to 214 °C
7,O=S(=O)(N=C(NCCF)N1CC(c2cccc(F)c2)C(c2ccc(Cl)cc2)=N1)c1ccc(Cl)cc1 (stereo not drawn),130 °C
8,CONC(=NS(=O)(=O)c1ccc(Cl)cc1)N1CC(c2c(F)cccc2F)C(c2ccc(Cl)cc2)=N1 (stereo not drawn),174 to 177 °C
9,"O=S(=O)(N=C(NCCF)N1CC(c2cccc(F)c2)C(c2ccc(Cl)cc2)=N1)c1ccc(C(F)(F)F)cc1 (stereo not drawn) [Example 53, 3-(4-Chlorophenyl)-N-(2-fluoroethyl)-4-(3-fluorophenyl)-N′-((4-(trifluoromethyl)phenyl)sulfonyl)-4,5-dihydro-1H-pyrazole-1-carboxamidine]",155 °C
10,"CONC(=NS(=O)(=O)c1ccc(Cl)cc1)N1CC(c2ccccc2)C(c2ccc(Cl)s2)=N1 (stereo not drawn) [Example 47, 3-(5-Chlorothien-2-yl)-N′-((4-chlorophenyl)sulfonyl)-N-methoxy-4-phenyl-4,5-dihydro-1H-pyrazole-1-carboxamidine]",180 to 181 °C
11,CONC(=NS(=O)(=O)c1ccc(Cl)cc1)N1CC(c2ccccc2)C(c2ccc(F)cc2)=N1 (stereo not drawn),201 to 203 °C
12,CONC(=NS(=O)(=O)c1cccc(C)c1)N1CC(c2ccccc2)C(c2ccc(Cl)cc2)=N1 (stereo not drawn),151 to 152 °C
13,CONC(=NS(=O)(=O)c1ccccc1C)N1CC(c2ccccc2)C(c2ccc(Cl)cc2)=N1 (stereo not drawn),145 to 146 °C
14,"CN1CCN(C(=NS(=O)(=O)c2ccc(Cl)cc2)N2CC(c3cccc(C(F)(F)F)c3)C(c3ccc(Cl)cc3)=N2)CC1 (stereo not drawn) [Example 86, N-[(3-(4-chlorophenyl)-4-(3-(trifluoromethyl)phenyl)-4,5-dihydro-1H-pyrazol-1-yl)(4-methylpiperazin-1-yl)methylene]-4-chlorobenzenesulfonamide]",97 to 100 °C
15,CONC(=NS(=O)(=O)c1ccc(C(F)(F)F)cc1)N1CC(c2ccccc2F)C(c2ccc(Cl)cc2)=N1 (stereo not drawn),147 to 149 °C
